Test results as given in ChEMBL document CHEMBL1121693 (1981).

Assays:
Type in all cases: functional
Mus musculus [1] = species on record: Mus musculus
Mus musculus [2] = species on record: Mus musculus; remark: listed apart in the source
Mus musculus [3] = species on record: Mus musculus; remark: listed apart in the source

c1ccc(C2(N3CCCCC3)CCCCC2)cc1 [PHENCYCLIDINE]
No. of mice (Mus musculus [1]): 0 | No. of mice (Mus musculus [2]): 4 | No. of mice (Mus musculus [3]): 0
